Laboratory results published in ChEMBL document CHEMBL1140135 (J Med Chem, 2008).

How the values were obtained:
Dihydrofolate reductase = target: T1, Dihydrofolate reductase (Homo sapiens, UniProt P00374)
T1 sequence (P00374 whole entry): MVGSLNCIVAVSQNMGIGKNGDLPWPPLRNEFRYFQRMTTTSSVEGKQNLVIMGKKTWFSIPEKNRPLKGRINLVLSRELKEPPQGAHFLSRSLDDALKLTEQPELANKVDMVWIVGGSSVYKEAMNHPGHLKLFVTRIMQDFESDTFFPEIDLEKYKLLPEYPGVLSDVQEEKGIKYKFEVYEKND
Description: Inhibition of human recombinant DHFR

Thymidylate synthase = Thymidylate synthase (Homo sapiens, UniProt P04818)
Description: Inhibition of human thymidylate synthase

[1] = target: T2, Bifunctional dihydrofolate reductase-thymidylate synthase (Toxoplasma gondii, UniProt Q07422)
T2 sequence (Q07422 whole entry): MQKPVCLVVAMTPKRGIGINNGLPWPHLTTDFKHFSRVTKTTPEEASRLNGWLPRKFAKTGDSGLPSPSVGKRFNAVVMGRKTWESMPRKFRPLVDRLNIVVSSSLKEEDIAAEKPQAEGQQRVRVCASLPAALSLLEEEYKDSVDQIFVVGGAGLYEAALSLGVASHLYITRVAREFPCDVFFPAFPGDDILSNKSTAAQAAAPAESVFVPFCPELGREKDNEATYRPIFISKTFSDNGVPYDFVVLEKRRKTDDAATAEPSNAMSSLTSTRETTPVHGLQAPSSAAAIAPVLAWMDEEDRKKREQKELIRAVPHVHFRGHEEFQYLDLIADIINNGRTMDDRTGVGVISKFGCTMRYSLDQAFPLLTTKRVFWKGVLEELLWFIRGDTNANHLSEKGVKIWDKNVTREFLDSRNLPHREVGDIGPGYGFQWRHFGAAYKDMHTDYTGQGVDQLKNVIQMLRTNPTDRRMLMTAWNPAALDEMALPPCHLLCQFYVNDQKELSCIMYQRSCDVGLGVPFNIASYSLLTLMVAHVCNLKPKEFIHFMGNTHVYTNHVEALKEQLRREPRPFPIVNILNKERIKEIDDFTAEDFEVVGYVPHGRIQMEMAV
Description: Inhibition of Toxoplasma gondii thymidylate synthase

[2] = target: T2, Bifunctional dihydrofolate reductase-thymidylate synthase; remark: listed apart in the source
Description: Inhibition of Toxoplasma gondii DHFR

[3] = target: T3, Dihydrofolate reductase (Escherichia coli) (UniProt P0ABQ4); assay: Inhibition of Escherichia coli DHFR at >[…] uM
T3 sequence (whole entry): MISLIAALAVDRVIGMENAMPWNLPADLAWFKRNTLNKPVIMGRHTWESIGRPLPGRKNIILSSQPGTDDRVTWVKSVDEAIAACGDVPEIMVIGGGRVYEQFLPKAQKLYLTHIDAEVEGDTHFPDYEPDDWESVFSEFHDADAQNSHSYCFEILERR

Thymidylate synthase, sequence (P04818 whole entry): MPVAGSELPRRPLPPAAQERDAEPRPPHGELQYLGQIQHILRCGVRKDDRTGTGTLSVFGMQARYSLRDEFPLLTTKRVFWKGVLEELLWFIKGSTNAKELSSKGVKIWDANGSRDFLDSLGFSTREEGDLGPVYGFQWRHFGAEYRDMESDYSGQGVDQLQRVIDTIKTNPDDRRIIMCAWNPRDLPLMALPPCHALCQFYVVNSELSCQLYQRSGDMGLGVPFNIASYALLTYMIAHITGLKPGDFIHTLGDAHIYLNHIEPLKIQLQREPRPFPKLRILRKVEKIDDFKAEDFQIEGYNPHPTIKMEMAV

Structure (SMILES)	IC50 (Dihydrofolate reductase) [nM]	IC50 (Thymidylate synthase) [nM]	IC50 [1] [nM]	IC50 [2] [nM]	inhibition [3] [%]
Cc1[nH]c2nc(N)[nH]c(=O)c2c1Sc1ccc(C(=O)N[C@@H](CCC(=O)O)C(=O)O)cc1	2200				
Cc1sc2nc(N)[nH]c(=O)c2c1Sc1ccc([N+](=O)[O-])cc1		110			
Cc1sc2nc(N)[nH]c(=O)c2c1Sc1ccccc1	3500	1200	8400	120	
Cc1sc2nc(N)[nH]c(=O)c2c1Sc1ccc(F)cc1	2600	1100			
Cc1sc2nc(N)[nH]c(=O)c2c1Sc1cc(Cl)cc(Cl)c1	5600	1000	2300	64	0
Cc1sc2nc(N)[nH]c(=O)c2c1Sc1ccc(Cl)cc1	1500	260	2600	31	
Cc1sc2nc(N)[nH]c(=O)c2c1Sc1ccc2ccccc2c1	2900	120	1200	44	
Cc1sc2nc(N)[nH]c(=O)c2c1Sc1ccncc1	2500	280	1400	34	
Cc1sc2nc(N)[nH]c(=O)c2c1Sc1ccc(Cl)c(Cl)c1		110	1200	28	0
